Results as given in ChEMBL document CHEMBL1145934, “Novel sst(4)-selective somatostatin (SRIF) agonists. 2. Analogues with beta-methyl-3-(2-naphthyl)alanine substitutions at position 8” (J Med Chem, 2003).

Columns and labels:
[1] = molecular target: Somatostatin receptor type 5 (Homo sapiens, UniProt P35346); assay: Binding affinity at human Somatostatin receptor type 5 by [125I][Leu8,D-Trp22,Tyr25]SRIF-28 displacement.
[2] = molecular target: Somatostatin receptor type 1 (Homo sapiens, UniProt P30872); assay: Binding affinity at human Somatostatin receptor type 1 by [125I][Leu8,D-Trp22,Tyr25]SRIF-28 displacement.
Somatostatin receptor type 1, sequence (P30872 whole entry): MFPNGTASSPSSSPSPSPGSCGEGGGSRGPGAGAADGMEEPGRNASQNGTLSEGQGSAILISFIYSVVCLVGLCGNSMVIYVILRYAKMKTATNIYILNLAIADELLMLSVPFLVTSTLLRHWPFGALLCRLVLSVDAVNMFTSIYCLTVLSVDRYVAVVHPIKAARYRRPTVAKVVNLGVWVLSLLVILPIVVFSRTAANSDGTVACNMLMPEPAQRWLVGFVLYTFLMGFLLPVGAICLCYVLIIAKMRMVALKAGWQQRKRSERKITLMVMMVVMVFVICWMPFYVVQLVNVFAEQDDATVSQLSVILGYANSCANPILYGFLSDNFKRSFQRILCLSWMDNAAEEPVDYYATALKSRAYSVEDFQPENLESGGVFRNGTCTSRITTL

[3] = molecular target: Somatostatin receptor type 4 (Homo sapiens, UniProt P31391); assay: Binding affinity at human Somatostatin receptor type 4 by [125I][Leu8,D-Trp22,Tyr25]SRIF-28 displacement.
Somatostatin receptor type 4, sequence (P31391 whole entry): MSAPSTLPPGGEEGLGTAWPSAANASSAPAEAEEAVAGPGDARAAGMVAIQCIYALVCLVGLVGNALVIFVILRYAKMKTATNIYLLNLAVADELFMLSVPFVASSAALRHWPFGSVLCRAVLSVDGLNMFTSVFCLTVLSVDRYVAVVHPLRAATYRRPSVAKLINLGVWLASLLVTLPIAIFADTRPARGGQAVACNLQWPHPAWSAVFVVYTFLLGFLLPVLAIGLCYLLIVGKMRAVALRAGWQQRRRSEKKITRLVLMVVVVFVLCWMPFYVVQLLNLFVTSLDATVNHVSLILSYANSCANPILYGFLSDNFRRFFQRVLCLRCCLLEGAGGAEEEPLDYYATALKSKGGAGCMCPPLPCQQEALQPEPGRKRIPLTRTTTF

[4] = molecular target: Somatostatin receptor type 3 (Homo sapiens, UniProt P32745); assay: Binding affinity at human Somatostatin receptor type 3 by [125I][Leu8,D-Trp22,Tyr25]SRIF-28 displacement.
Somatostatin receptor type 3, sequence (P32745 whole entry): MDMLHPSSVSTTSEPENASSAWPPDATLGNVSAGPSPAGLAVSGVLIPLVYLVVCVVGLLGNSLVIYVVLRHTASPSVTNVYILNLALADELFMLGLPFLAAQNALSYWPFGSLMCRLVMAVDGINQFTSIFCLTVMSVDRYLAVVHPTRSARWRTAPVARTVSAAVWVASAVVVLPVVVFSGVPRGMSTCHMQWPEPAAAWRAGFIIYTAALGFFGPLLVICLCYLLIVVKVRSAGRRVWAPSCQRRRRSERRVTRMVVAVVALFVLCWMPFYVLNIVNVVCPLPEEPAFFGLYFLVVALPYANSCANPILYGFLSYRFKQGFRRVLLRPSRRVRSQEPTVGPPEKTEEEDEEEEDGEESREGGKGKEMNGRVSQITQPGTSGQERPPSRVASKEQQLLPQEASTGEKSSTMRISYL

[5] = molecular target: Somatostatin receptor type 2 (Homo sapiens, UniProt P30874); assay: Binding affinity at human Somatostatin receptor type 2 by [125I][Leu8,D-Trp22,Tyr25]SRIF-28 displacement.
Somatostatin receptor type 2, sequence (P30874 whole entry): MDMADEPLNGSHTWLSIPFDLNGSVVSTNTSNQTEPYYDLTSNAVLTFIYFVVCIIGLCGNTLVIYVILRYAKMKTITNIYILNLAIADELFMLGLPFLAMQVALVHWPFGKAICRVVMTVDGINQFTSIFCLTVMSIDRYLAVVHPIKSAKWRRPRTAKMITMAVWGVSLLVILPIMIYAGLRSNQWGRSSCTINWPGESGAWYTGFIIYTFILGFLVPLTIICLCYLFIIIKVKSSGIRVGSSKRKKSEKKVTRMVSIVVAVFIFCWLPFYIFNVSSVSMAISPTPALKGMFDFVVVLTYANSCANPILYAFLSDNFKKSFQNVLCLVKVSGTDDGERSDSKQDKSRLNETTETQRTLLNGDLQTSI

Somatostatin receptor type 5, sequence (P35346 whole entry): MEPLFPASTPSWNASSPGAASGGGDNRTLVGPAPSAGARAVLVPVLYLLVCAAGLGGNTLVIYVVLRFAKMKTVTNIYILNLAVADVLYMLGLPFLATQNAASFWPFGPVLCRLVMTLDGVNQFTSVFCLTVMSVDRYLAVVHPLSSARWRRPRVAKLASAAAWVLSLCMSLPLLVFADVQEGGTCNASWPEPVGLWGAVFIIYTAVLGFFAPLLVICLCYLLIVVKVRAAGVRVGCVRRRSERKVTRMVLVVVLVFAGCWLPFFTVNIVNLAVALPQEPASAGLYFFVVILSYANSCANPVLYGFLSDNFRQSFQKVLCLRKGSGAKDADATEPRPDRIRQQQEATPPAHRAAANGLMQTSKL

| SMILES | IC50 [1] | IC50 [2] | IC50 [3] | IC50 [4] | IC50 [5] |
| --- | --- | --- | --- | --- | --- |
| C[C@H](c1ccc2ccccc2c1)[C@@H]1NC(=O)[C@H](Cc2ccccc2)NC(=O)[C@@H](Cc2ccccc2)NC(=O)[C@H](N)CSSC[C@@H](C(=O)O)NC(=O)[C@H](Cc2ccc(O)cc2)NC(=O)[C@@H]([C@@H](C)O)NC(=O)[C@H](CCCCN)NC1=O | 0.047 µM | > 1 µM | 0.0092 µM | 0.012 µM | 0.016 µM |
| C[C@@H](O)[C@@H]1NC(=O)[C@H](CCCCN)NC(=O)[C@@H]([C@@H](C)c2ccc3ccccc3c2)NC(=O)[C@H](Cc2ccc(N)cc2)NC(=O)[C@H](Cc2ccccc2)NC(=O)[C@H](NC(=O)[C@@H](N)Cc2ccc(O)cc2)CSSC[C@@H](C(=O)O)NC(=O)[C@H](Cc2ccccc2)NC1=O | 0.127 µM | > 1 µM | 0.0098 µM | 0.171 µM | 0.204 µM |
| C[C@H](c1ccc2ccccc2c1)[C@@H]1NC(=O)[C@H](Cc2ccc(N)cc2)NC(=O)[C@@H](Cc2ccccc2)NC(=O)[C@H](N)CSSC[C@@H](C(=O)O)NC(=O)[C@H](Cc2ccccc2)NC(=O)[C@@H]([C@@H](C)O)NC(=O)[C@H](CCCCN)NC1=O | 0.101 µM | > 1 µM | 0.0087 µM | 0.186 µM | 0.102 µM |
| C[C@H](c1ccc2ccccc2c1)[C@H]1NC(=O)[C@H](Cc2ccc(O)cc2)NC(=O)[C@@H](Cc2ccccc2)NC(=O)[C@H](N)CSSC[C@@H](C(=O)O)NC(=O)[C@H](Cc2ccccc2)NC(=O)[C@@H]([C@@H](C)O)NC(=O)[C@H](CCCCN)NC1=O | > 10 µM | > 10 µM | > 1 µM | > 1 µM | > 10 µM |
| C[C@@H](O)[C@@H]1NC(=O)[C@H](CCCCN)NC(=O)[C@@H]([C@@H](C)c2ccc3ccccc3c2)NC(=O)[C@H](Cc2ccc(O)cc2)NC(=O)[C@H](Cc2ccccc2)NC(=O)[C@H](N)CSSC[C@@H](C(=O)O)NC(=O)[C@H](Cc2ccccc2)NC1=O | – | – | 0.00053 µM | – | – |
| C[C@@H](O)[C@@H]1NC(=O)[C@H](CCCCN)NC(=O)[C@@H]([C@@H](C)c2ccc3ccccc3c2)NC(=O)[C@H](Cc2ccc(O)cc2)NC(=O)[C@H](Cc2ccccc2)NC(=O)[C@@H](N)CSSC[C@@H](C(=O)O)NC(=O)[C@H](Cc2ccccc2)NC1=O | > 1 µM | > 1 µM | 0.105 µM | > 10 µM | > 1 µM |
| C[C@@H](O)[C@@H]1NC(=O)[C@H](CCCCN)NC(=O)[C@H]([C@@H](C)c2ccc3ccccc3c2)NC(=O)[C@H](Cc2ccc(O)cc2)NC(=O)[C@H](Cc2ccccc2)NC(=O)[C@@H](N)CSSC[C@@H](C(=O)O)NC(=O)[C@H](Cc2ccccc2)NC1=O | 0.147 µM | > 1 µM | 0.0021 µM | 0.6 µM | 0.11 µM |
| C[C@@H](O)[C@H]1NC(=O)[C@H](CCCCN)NC(=O)[C@@H]([C@@H](C)c2ccc3ccccc3c2)NC(=O)[C@H](Cc2ccccc2)NC(=O)[C@@H](Cc2ccccc2)NC(=O)[C@H](N)CSSC[C@@H](C(=O)O)NC(=O)[C@H](Cc2ccc(O)cc2)NC1=O | 0.7 µM | > 1 µM | 0.0118 µM | 0.325 µM | 0.357 µM |
| C[C@H](c1ccc2ccccc2c1)[C@@H]1NC(=O)[C@H](Cc2ccc(N)cc2)NC(=O)[C@H](Cc2ccccc2)NC(=O)[C@H](NC(=O)[C@@H](N)Cc2ccc(O)cc2)CSSC[C@@H](C(=O)O)NC(=O)[C@H](Cc2ccccc2)NC(=O)[C@H]([C@@H](C)O)NC(=O)[C@H](CCCCN)NC1=O | > 1 µM | > 1 µM | 0.061 µM | 0.595 µM | 0.474 µM |
| C[C@H](c1ccc2ccccc2c1)[C@@H]1NC(=O)[C@H](Cc2ccc(O)cc2)NC(=O)[C@H](Cc2ccccc2)NC(=O)[C@@H](N)CSSC[C@@H](C(=O)O)NC(=O)[C@H](Cc2ccccc2)NC(=O)[C@H]([C@@H](C)O)NC(=O)[C@H](CCCCN)NC1=O | 0.0175 µM | 0.41 µM | 0.0022 µM | 0.018 µM | 0.03 µM |
| C[C@@H](O)[C@H]1NC(=O)[C@H](CCCCN)NC(=O)[C@@H]([C@@H](C)c2ccc3ccccc3c2)NC(=O)[C@H](Cc2ccc(N)cc2)NC(=O)[C@@H](Cc2ccccc2)NC(=O)[C@H](N)CSSC[C@@H](C(=O)O)NC(=O)[C@H](Cc2ccccc2)NC1=O | > 10 µM | > 10 µM | 0.0069 µM | > 1 µM | 0.575 µM |
| COC(=O)[C@H](CCCN=C(N)N)NC(=O)CCCc1c(-c2ccccc2)[nH]c2c(F)cc(F)cc12 | – | – | – | > 10 µM | > 10 µM |
